This is an account of results in patent US7034028B2, “Treatment of inflammatory disorders” (Arakis Ltd., priority 2000, dated 2006).

Molecules are shown by their SMILES. Where two headings read alike, the source gives them in different places.

In assay [1] the test system is bovine nasal cartilage. Briefly: Ex vivo IL-2-stimulated bovine nasal cartilage destruction model. It counts as cell-based. On the set-up: Inhibition of IL-2-stimulated bovine nasal cartilage destruction: unit not given here. Conditions: for inhibition at 1 µM / inhibition at 10 µM / inhibition at 100 µM: Bos taurus, read-out: Inhibition of IL-2-stimulated bovine nasal cartilage destruction.

Assay [2] relates to IFN gamma. Briefly: Cytokine inhibition profile: IFN gamma. It counts as cell-based. Conditions: read-out: Inhibition Profile (IC50) IFN gamma.
Assay [3] relates to IL-1. Briefly: Cytokine inhibition profile: IL-1. Conditions: read-out: Inhibition Profile (IC50) IL-1. Format: cell-based.
Assay [4] has as its system TNF. The assay is described as follows: Cytokine inhibition profile: TNF. It counts as cell-based. The following applies: read-out: Inhibition Profile (IC50) TNF.
The subject of assay [5] is Interleukin-8 (IL-8). Briefly: Cytokine inhibition profile: IL-8. Format: cell-based.
Assay [6] concerns T-cell proliferation. Briefly: T-cell (lymphocyte) proliferation inhibition. Format: cell-based, human.
Assay [7] has as its system IL-2. The assay is described as follows: Cytokine inhibition profile: IL-2. It counts as cell-based. Conditions: read-out: Inhibition Profile (IC50) IL-2.
Assay [8] concerns IL-6. The assay is described as follows: Cytokine inhibition profile: IL-6. Format: cell-based. The following applies: read-out: Inhibition Profile (IC50) IL-6.
Setting [9] is: read-out: Inhibition Profile (IC50) T-cell proliferation.

A word on the inhibition: it is the share of the control response that was lost under treatment.

In the case of `O[C@H](c1cc(C(F)(F)F)nc2c(C(F)(F)F)cccc12)[C@@H]1CCCCN1` [(+)Mefloquine, (+)-Erythro-mefloquine], the figures for the “Inhibition of IL-2-stimulated bovine nasal cartilage destruction” value in assay [1] (1 μM), in assay [1] (10 μM) and in assay [1] (100 μM) were 32, 44 and 71, respectively. Also, the IC50 in assay [2] amounted to 17 µM; in assay [3] it was 68 µM; in assay [4], 24 µM; in assay [5], 41 µM; in assay [6] (setting [9]), 11 µM; in assay [7], 17 µM. In addition, the IC50 in assay [8] was determined as 53 µM. For the same compound, the “Suppression of human lymphocyte proliferation, in words” value in assay [6] is on record as “suppresses”.

`OC(c1cc(C(F)(F)F)nc2c(C(F)(F)F)cccc12)C1CCCCN1` (single isomer, unassigned; (-)) [(−)Mefloquine]: the “Inhibition of IL-2-stimulated bovine nasal cartilage destruction” value is listed as 37 in assay [1] (1 μM), 45 in assay [1] (10 μM) and 82 in assay [1] (100 μM). In addition, the IC50 in assay [2] is 18 µM; in assay [3], 79 µM; in assay [4], 18 µM; in assay [5] it was 63 µM; in assay [6] (setting [9]), 10 µM; in assay [7], 17 µM. The IC50 in assay [8] worked out at 43 µM.

Regarding `OC(c1cc(C(F)(F)F)nc2c(C(F)(F)F)cccc12)C1CCCCN1` (racemic) [(+/−) Mefloquine, mefloquine], in assay [1] (10 μM), the “Inhibition of IL-2-stimulated bovine nasal cartilage destruction” value was found to be 20.

Consider `CCN(CC)CCCC(C)Nc1ccnc2cc(Cl)ccc12` (stereo not shown) [Chloroquine, chloroquine], for which, in assay [1], the inhibition at 1 µM is 3%. Moreover, in assay [1], the inhibition at 10 µM was 6%. Also, the inhibition at 100 µM in assay [1] is 35%. Besides, the IC50 stood at 63 µM in assay [2]; 6.3 µM in assay [3]; 21 µM in assay [4]; 13 µM in assay [6] (Homo sapiens, T-cell, read-out: Inhibition Profile (IC50) T-cell proliferation); 66 µM in assay [7]; 81 µM in assay [8]. Moreover, in assay [5], the “Inhibition Profile (IC50) IL-8” value is recorded as “Inactive”.

With `CCN(CCO)CCCC(C)Nc1ccnc2cc(Cl)ccc12` (stereo not shown) [Hydroxychloroquine, hydroxychloroquine], in assay [1] (1 μM), the inhibition at 1 µM is 4%. Further, the inhibition at 10 µM in assay [1] (10 μM) was 3%. The inhibition at 100 µM in assay [1] (100 μM) is 36%. Further, the IC50 came to 94 µM in assay [2]; 21 µM in assay [3]; 32.2 µM in assay [4]; 16 µM in assay [6] (Homo sapiens, T-cell; read-out: Inhibition Profile (IC50) T-cell proliferation); 94 µM in assay [7]; 90 µM in assay [8]. The “Activity against Interleukin-8 (IL-8), in words” value in assay [5] is “inactive”. The “Inhibition Profile (IC50) IL-8” value in assay [5] is reported as “Inactive”.
